Patent US9745280B2, “Compound or pharmaceutically acceptable salt thereof, and pharmaceutical composition containing same as active ingredient” (SNU R&DB FOUNDATION, priority 2012, dated 2017)

Key:
HUVECs = experiment: HUVEC tube formation with conditioned medium from treated H1299 cells; assay type: cell-based; conditions: CM from H1299 cells treated under normoxic or hypoxic conditions
Experimental: H1299 cells were treated with example 28 compound (“SH” in FIG. 13) or deguelin for 1 d and then further incubated under normoxic or hypoxic conditions for 4 h. After incubation, the drug-containing medium was discarded and fresh serum-free medium was added to cell and further incubated for 24 h. After incubation, the conditioned medium (CM) was collected.
Briefly, the HUVECs were diluted in complete medium and seeded onto CellBIND surface 96-well plates (Corning). The cells were treated with the CM. The morphological changes of the HUVECs were photographed and scored.

[1] = tested on: human umbilical vein endothelial cells (HUVECs); experiment: Vascular endothelial cell proliferation, [3H]-thymidine incorporation, conditioned media of hypoxic HCT116; assay type: cell-based; conditions: conditioned media of HCT116 treated at 1˜100 nM under hypoxia; HUVECs 18 hours
Experimental: (§1) First, HCT116, the human colorectal cancer cell line, was cultured in a hypoxic chamber (1% O2) as the in vitro hypoxic model. The cells were treated with deguelin, compound 69 (Example 33) and compound 54 (Example 28) at the concentrations of 1˜100 nM, followed by culture for 8 hours. Next, the culture fluid was collected and proceeded to centrifugation at 4° C. for 10 minutes (6,000×g). Cell culture fluid was obtained from the supernatant (conditioned media (CM)). The obtained cell culture fluid was treated to human umbilical vein endothelial cells (HUVECs) which were cultured separately. Then changes of angiogenesis were investigated by the following experiments.
The cell culture fluid prepared in the above preparation stage was treated to umbilical vein endothelial cells (HUVECs) for 18 hours. Cell proliferation was confirmed by [^3H]-thymidine incorporation assay.

[2] = tested on: lung cancer cells with or without anticancer drug resistance; experiment: Anchorage-independent (soft agar) colony formation assay; assay type: cell-based; conditions: 2 weeks
Text: (§2) H1299, H460, H292, and BEAS-2B cells were purchased from the ATCC. The other NSCLC cells were kindly provided by Dr. John V. Heymach (MD Anderson Cancer Center, Houston, Tex.). HUVECs were purchased from Invitrogen. Human bronchial epithelial (HBE) cells were kindly provided by Dr. John Minna (The University of Texas Southwestern Medical Center, Dallas, Tex.). Human retinal pigment epithelial (RPE) cells were kindly provided by Dr. Jeong Hun Kim (College of Medicine, Seoul National University, Seoul, Republic of Korea). HT-22 cells were provided by Dr. Dong Gyu Jo (College of Pharmacy, Sungkyunkwan University, Suwon, Republic of Korea). Cell lines were authenticated and validated at the Korean Cell Line Bank using AmplFLSTR identifier PCR Amplification Kit (Applied Biosystems; cat. No. 4322288) in 2013. Cells passed for fewer than 6 months after receipt or resuscitation of validated cells were used in this study.
HT-22 and RPE cells were cultured in DMEM supplemented with 10% fetal bovine serum (FBS) and antibiotics. […]
For the anchorage-independent colony formation assay, the cells were mixed with sterile 1% agar solution (final concentration of 0.4%) and then poured onto 1% base agar in 24-well plates. […] After incubation, the colonies were stained with MTT solution and then photographed and counted.

[3] = tested on: lung cancer cells with or without anticancer drug resistance; experiment: Anchorage-dependent colony formation assay; assay type: cell-based; conditions: increasing concentrations, 2 weeks
Text: as §2
HT-22 and RPE cells were cultured in DMEM supplemented with 10% fetal bovine serum (FBS) and antibiotics. Other cancer cells were cultured in RPMI 1640 medium supplemented with 10% FBS and antibiotics. […]
For the anchorage-dependent colony formation assay, cells were seeded onto 6-well plates at a density of 300 cells/well and then treated with increasing concentrations of example 28 compound (“SH” in FIG. 11) for 2 weeks. […] The colonies were photographed and counted.

[4] = tested on: H1299 NSCLC (non-small cell lung cancer) cells; experiment: Cancer cell growth inhibition (MTS); assay type: cell-based; conditions: Homo sapiens
Experimental: To investigate the inhibitory effect of the compounds of Examples of the present invention on cancer cell growth, the following experiment was performed. Particularly, H1299 NSCLC (non-small cell lung cancer) cells were distributed in a 96-well plate at the density of 5×10^3 cells/well, followed by culture in a 37° C., 5% CO2 incubator for 24 hours. The compound of each example was dissolved in DMSO (10 nM, 100 nM, 1 μM, 10 μM), which was treated to each well. 48 hours later, cell growth was measured by using MTS reagent (3-(4,5-dimethylthiazole-2-yl)-5-(3-carboxymethoxyphenyl)-2-(4-sulfophenyl)-2H-tetrazolium). The experiment was performed in triplicate and the standard error of the analysis result was corrected.

HIF-1α = HIF-1α inhibitory activity, hypoxia-response element-luciferase in HRE-A549 cells; assay type: cell-based; conditions: HRE-A549 cells, hypoxia-chamber 24 h, luciferase activity
Experimental: HRE-A549 cells stably transfected with hypoxia-response element-luciferase construct were incubated in Dulbecco's modified Eagle's medium. Following overnight serum deprivation, the cells were treated with or without Deguelin or example compounds. After 1 h incubation, the cells were incubated in hypoxia-chamber for 24 h at 37° C. Luciferase activity was measured by adding luciferase assay reagent (Promega, Madison, Wis.).

[5] = tested on: human normal lung epithelial cells (HBE and BEAS-2B); assay type: cell-based
Text: (§3) We examined toxicity of example 28 compound at the cellular levels by testing the effects of example 28 compound on the viability of several normal cells, including human normal lung epithelial cells (HBE and BEAS-2B; FIG. 14), hippocampal cells (HT-22; FIG. 15), retinal pigment epithelial cells (FIG. 16), and vascular endothelial cells (HUVEC; FIG. 17).

[6] = tested on: vascular endothelial cells (HUVEC); assay type: cell-based
Text: as §3

[7] = tested on: hippocampal cells (HT-22); assay type: cell-based
Text: as §3

[8] = Body weight of treated rats; assay type: in vivo
[9] = tested on: retinal pigment epithelial cells; assay type: cell-based, human
Text: as §3

[10] = tested on: human bronchial epithelial cells (HBEC-1 and BEAS-2B); experiment: Cytotoxicity to normal cells (MTT); assay type: cell-based; conditions: 3 days
Experimental: To investigate the cytotoxicity of the control deguelin, the compound 69 (Example 33), and the compound 54 (Example 28) to the normal cells, it was examined how these compounds affect the proliferation of human bronchial epithelial cells (HBEC-1 and BEAS-2B).
Particularly, HBEC-1 and BEAS-2B cells were seeded on a 96-well culture plate (5,000 cells/well), followed by culture for 24 hours. The plate was treated with 0.1% DMSO (comparative control (CT)), 1 μM of deguelin (control), or […] of the compound 69 (Example 33) and the compound 54 (Example 28) (experimental group), followed by further culture for 3 days. Cytotoxicity was evaluated by MTT assay.

[11] = tested on: human umbilical vein endothelial cells (HUVECs); experiment: Vascular endothelial cell migration, trans-well, conditioned media of hypoxic HCT116; assay type: cell-based; conditions: cell culture fluid treated at 100 nM; 4 hours
Experimental: as §1
The cell culture fluid obtained in the above preparation stage was loaded in the lower chamber of trans-well plate (6.5 mm diameter filter) and umbilical vein endothelial cells (HUVECs) were plated carefully in the upper chamber, followed by culture at 37° C. for 4 hours. The cells migrated down the filter were confirmed by H&E staining.

[12] = tested on: human umbilical vein endothelial cells (HUVECs); experiment: Vascular endothelial cell tube formation, conditioned media of hypoxic HCT116; assay type: cell-based; conditions: conditioned media of treated HCT116; 30 hours
Experimental: as §1
Umbilical vein endothelial cells (HUVECs) were treated with the cell culture fluid obtained in the above preparation stage. 30 hours later, tube formation was observed. As a result, tube formation was induced by the control deguelin and the compounds of the present invention.

[13] = previous study; decreased tyrosine hydroxylase immunoreactivity; cited from earlier work

## COc1ccc(CC(=O)c2ccc3c(c2OC)C=CC(C)(C)O3)cc1OC [Example 28, 2-(3,4-Dimethoxyphenyl)-1-(5-methoxy-2,2-dimethyl-2H-chromen-6-yl)ethanone]
HUVECs
  tube formation of HUVECs: formed significantly fewer tubes
[1]
  proliferation of vascular endothelial cells: inhibited the proliferation of vascular endothelial cells dose-dependently
[2]
  anchorage-independent colony formation: remarkably superior anticancer effect
[3]
  anchorage-dependent colony formation: remarkably superior anticancer effect
[4]; NCI-H1299, 48 hours, MTS reagent
  IC50: 140 nM
HIF-1α
  IC50: 2150 nM
[5]
  cytotoxicity compared with deguelin: significantly reduced cytotoxicity
[6]
  cytotoxicity compared with deguelin: significantly reduced cytotoxicity
[7]
  cytotoxicity compared with deguelin: significantly reduced cytotoxicity
[8]; rat, in vivo
  body weight of rats: minimal influence on the body weight of rats
[9]
  cytotoxicity compared with deguelin: significantly reduced cytotoxicity

## COc1ccc(CC(=O)c2ccc3c(c2OC)C=CC(C)(C)O3)cc1OC [compound 54, 2-(3,4-Dimethoxyphenyl)-1-(5-methoxy-2,2-dimethyl-2H-chromen-6-yl)ethanone]
[4]; NCI-H1299, value repeated in text
  IC50: 140 nM
[10]; human, 1 μM
  cell survival rate: approximately 80%
[11]
  migration of vascular endothelial cells: showed the inhibitory effect on the migration of vascular endothelial cells
[12]
  inhibitory effect on tube formation: greater than that of the control deguelin

## COc1ccc([C@H](C)C(=O)c2ccc3c(c2OC)C=CC(C)(C)O3)cc1OC [compound 69, (S)-2-(3,4-Dimethoxyphenyl)-1-(5-methoxy-2,2-dimethyl-2H-chromen-6-yl)propan-1-one]
[1]
  proliferation of vascular endothelial cells: inhibited the proliferation of vascular endothelial cells dose-dependently
[10]; human, 1 μM
  cell survival rate: approximately 80%
[11]
  migration of vascular endothelial cells: showed the inhibitory effect on the migration of vascular endothelial cells
[12]
  inhibitory effect on tube formation: greater than that of the control deguelin

## COc1cc2c(cc1OC)[C@@H]1C(=O)c3ccc4c(c3O[C@@H]1CO2)C=CC(C)(C)O4 [deguelin, Deguelin, reference compound]
[13]
  toxicity in the rat brain: caused parkinsonism-like syndrome
[10]; HBEC-1 and BEAS-2B, 1 μM of deguelin, MTT
  cell survival rate: approximately 60%
[8]; compared with control
  body weight of rats: significantly reduced
